Experimental data: the supplement of paper PMC10307832

Columns and labels:
Assay in all cases: relative viability (nuclei count vs DMSO), 5 days (fraction); higher = more cells survive
NCI-H322M = tested on: NCI-H322M
In short: (§1)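 Lung cancer cell lines, seeded in 1536-well plates, were treated the following day by pin tool with a single drug or with five library-drug doses (not always all listed) in √10 steps on top of a fixed anchor-drug dose. Cells were fixed and nuclei stained in one step after 5 days, and nuclei were counted. Relative viability is the nuclei count for treated wells divided by that for vehicle wells, reported as medians of duplicate plates.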

ChaGo-K-1 = tested on: ChaGo-K-1
In short: as §1

NCI-H838 = tested on: NCI-H838
In short: as §1

NCI-H2342 = tested on: NCI-H2342
In short: as §1

NCI-H358 = tested on: NCI-H358
In short: as §1

LCLC-97TM1 = tested on: LCLC-97TM1
In short: as §1

NCI-H1651 = tested on: NCI-H1651
In short: as §1

LC-2-ad = tested on: LC-2-ad
In short: as §1

HCC-78 = tested on: HCC-78
In short: as §1

PC-3 [JPC-3] = tested on: PC-3 [JPC-3]
In short: as §1

HCC-15 = tested on: HCC-15
In short: as §1

NCI-H2087 = tested on: NCI-H2087
In short: as §1

NCI-H1944 = tested on: NCI-H1944
In short: as §1

NCI-H1666 = tested on: NCI-H1666
In short: as §1

LXF-289 = tested on: LXF-289
In short: as §1

BEN = tested on: BEN
In short: as §1

H3255 = tested on: H3255
In short: as §1

LU99A = tested on: LU99A
In short: as §1

NCI-H650 = tested on: NCI-H650
In short: as §1

LK-2 = tested on: LK-2
In short: as §1

NCI-H596 = tested on: NCI-H596
In short: as §1

`C[C@@H]1CN(CC(=O)Nc2ccc3c(c2)Cc2cccc(-c4cc(=O)cc(N5CCOCC5)o4)c2S3)C[C@H](C)O1` + NC(=O)Nc1cc(-c2cccc(F)c2)sc1C(=O)N[C@H]1CCCNC1 [AZD7762] (partner 0.2 µM) showed a relative viability (NCI-H322M; first compound 0.04 µM) of 0.527, a relative viability (NCI-H322M; first compound 0.1265 µM) of 0.546 and a relative viability (NCI-H322M; first compound 0.4 µM) of 0.702. It also gave a relative viability (NCI-H322M; first compound 4 µM) of 0.56, a relative viability (ChaGo-K-1; first compound 0.04 µM) of 0.836 and a relative viability (ChaGo-K-1; first compound 0.1265 µM) of 0.855. The relative viability (ChaGo-K-1; first compound 0.4 µM) was 0.847, the relative viability (ChaGo-K-1; first compound 4 µM) was 0.799 and the relative viability (NCI-H838; first compound 0.04 µM) was 0.802. For the same compound, the relative viability (NCI-H838; first compound 0.1265 µM) was 0.909, the relative viability (NCI-H838; first compound 0.4 µM) was 0.992 and the relative viability (NCI-H838; first compound 4 µM) was 0.861. For the same compound, the relative viability (NCI-H2342; first compound 0.04 µM) was 0.499, the relative viability (NCI-H2342; first compound 0.1265 µM) was 0.495 and the relative viability (NCI-H2342; first compound 0.4 µM) was 0.492. It also gave a relative viability (NCI-H2342; first compound 4 µM) of 0.441, a relative viability (NCI-H358; first compound 0.04 µM) of 0.463 and a relative viability (NCI-H358; first compound 0.1265 µM) of 0.416. For the same compound, the relative viability (NCI-H358; first compound 0.4 µM) was 0.539, the relative viability (NCI-H358; first compound 4 µM) was 0.365 and the relative viability (LCLC-97TM1; first compound 0.1265 µM) was 0.222. For the same compound, the relative viability (LCLC-97TM1; first compound 0.4 µM) was 0.231, the relative viability (LCLC-97TM1; first compound 4 µM) was 0.221 and the relative viability (NCI-H1651; first compound 0.04 µM) was 0.428. The relative viability (NCI-H1651; first compound 0.1265 µM) was 0.405, the relative viability (NCI-H1651; first compound 0.4 µM) was 0.464 and the relative viability (NCI-H1651; first compound 4 µM) was 0.38. For the same compound, the relative viability (LC-2-ad; first compound 0.04 µM) was 0.838, the relative viability (LC-2-ad; first compound 0.1265 µM) was 0.758 and the relative viability (LC-2-ad; first compound 0.4 µM) was 0.86. For the same compound, the relative viability (LC-2-ad; first compound 4 µM) was 0.807, the relative viability (HCC-78; first compound 0.04 µM) was 0.502 and the relative viability (HCC-78; first compound 0.1265 µM) was 0.642. For the same compound, the relative viability (HCC-78; first compound 0.4 µM) was 0.479, the relative viability (HCC-78; first compound 4 µM) was 0.66 and the relative viability (PC-3 [JPC-3]; first compound 0.04 µM) was 0.777. The relative viability (PC-3 [JPC-3]; first compound 0.1265 µM) was 0.739, the relative viability (PC-3 [JPC-3]; first compound 0.4 µM) was 0.796 and the relative viability (PC-3 [JPC-3]; first compound 4 µM) was 0.669. For the same compound, the relative viability (HCC-15; first compound 0.04 µM) was 1.18, the relative viability (HCC-15; first compound 0.1265 µM) was 1.06 and the relative viability (HCC-15; first compound 0.4 µM) was 1.37. The relative viability (HCC-15; first compound 4 µM) was 1.05, the relative viability (NCI-H2087; first compound 0.04 µM) was 1.26 and the relative viability (NCI-H2087; first compound 0.1265 µM) was 1.17. For the same compound, the relative viability (NCI-H2087; first compound 0.4 µM) was 1.46, the relative viability (NCI-H2087; first compound 4 µM) was 0.954 and the relative viability (NCI-H1944; first compound 0.1265 µM) was 0.561. It also gave a relative viability (NCI-H1944; first compound 0.4 µM) of 0.605, a relative viability (NCI-H1944; first compound 4 µM) of 0.396 and a relative viability (NCI-H1666; first compound 0.04 µM) of 0.891. It also gave a relative viability (NCI-H1666; first compound 0.1265 µM) of 0.891, a relative viability (NCI-H1666; first compound 0.4 µM) of 0.941 and a relative viability (NCI-H1666; first compound 4 µM) of 0.765. For the same compound, the relative viability (LXF-289; first compound 0.04 µM) was 1.05, the relative viability (LXF-289; first compound 0.1265 µM) was 1.12 and the relative viability (LXF-289; first compound 0.4 µM) was 1.19. For the same compound, the relative viability (LXF-289; first compound 4 µM) was 1.04, the relative viability (BEN; first compound 0.04 µM) was 0.612 and the relative viability (BEN; first compound 0.1265 µM) was 0.566. The relative viability (BEN; first compound 0.4 µM) was 0.625, the relative viability (BEN; first compound 4 µM) was 0.645 and the relative viability (H3255; first compound 0.04 µM) was 0.792. For the same compound, the relative viability (H3255; first compound 0.1265 µM) was 0.765, the relative viability (H3255; first compound 0.4 µM) was 0.943 and the relative viability (H3255; first compound 4 µM) was 0.725. It also gave a relative viability (LU99A; first compound 0.04 µM) of 0.334, a relative viability (LU99A; first compound 0.1265 µM) of 0.472 and a relative viability (LU99A; first compound 0.4 µM) of 0.465. For the same compound, the relative viability (LU99A; first compound 4 µM) was 0.363, the relative viability (NCI-H650; first compound 0.04 µM) was 0.981 and the relative viability (NCI-H650; first compound 0.1265 µM) was 0.853. It also gave a relative viability (NCI-H650; first compound 0.4 µM) of 1.21, a relative viability (NCI-H650; first compound 4 µM) of 0.895 and a relative viability (LK-2; first compound 0.04 µM) of 0.331. For the same compound, the relative viability (LK-2; first compound 0.1265 µM) was 0.363, the relative viability (LK-2; first compound 0.4 µM) was 0.293 and the relative viability (LK-2; first compound 4 µM) was 0.432. It also gave a relative viability (NCI-H596; first compound 0.04 µM) of 1.12, a relative viability (NCI-H596; first compound 0.1265 µM) of 1.1 and a relative viability (NCI-H596; first compound 0.4 µM) of 1.1. The relative viability (NCI-H596; first compound 4 µM) was 1.06.
